Test results reported in patent US4492693A, “Benzothienylglycyl cephalosporin derivatives” (priority 1983, dated 1985).
In brackets after ≈: the same amount, converted by molar mass. Like-named read-outs stand apart in the source and are kept apart here.

Assays:
[1] = test system: Bacteroides fragilis; assay: Expanded anaerobic Spectrum MIC (Table IV); type: cell-based
[2] = test system: Haemophilus influenzae; assay: Expanded H. influenzae Spectrum MIC (Table IV); type: cell-based
[3] = test system: β-lactamase, organism 265A; assay: Stability to β-lactamase (Table V); type: biochemical; details: lower numbers mean greater stability
[4] = test system: β-lactamase, organism PS185; assay: Stability to β-lactamase (Table V); type: biochemical; details: lower numbers mean greater stability
[5] = test system: β-lactamase, organism TEM; type: biochemical; details: lower numbers mean greater stability
[6] = test system: β-lactamase, organism 1082E; assay: Stability to β-lactamase (Table V); type: biochemical; details: lower numbers mean greater stability
[7] = test system: β-lactamase, organism 1313G; assay: Stability to β-lactamase (Table V); type: biochemical; details: lower numbers mean greater stability
[8] = test system: Staph. aureus; assay: Agar Dilution MIC (Table I); type: cell-based; details: Staphylococcus aureus, read-out: Agar Dilution MIC
[9] = test system: Staph. epi; assay: Agar Dilution MIC (Table I); type: cell-based; details: read-out: Agar Dilution MIC
[10] = test system: Strep. A; assay: Agar Dilution MIC (Table I); type: cell-based; details: strain C203; read-out: Agar Dilution MIC
[11] = test system: Strep. PN; assay: Agar Dilution MIC (Table I); type: cell-based; details: strain PARK
[12] = test system: Strep. D; assay: Agar Dilution MIC (Table I); type: cell-based; details: read-out: Agar Dilution MIC
Description: (§1) A typical and preferred compound provided by this invention is 7-(3-benzothienyl)glycylamido-3-methyl-3-cephem-4-carboxylic acid, the compound illustrated in Example 9. The antibacterial activity of this compound has been determined in standard in vitro agar dilution assays against a variety of gram positive and gram negative microorganism. The following Tables present typical minimum inhibitory concentrations (MIC's) in μg/ml for several compounds of the invention when evaluated against the indicated microorganisms. MIC's for several known compounds are also presented for comparison.
Agar Dilution MIC (μg/ml)

[13] = test system: H. influ.; assay: Agar Dilution MIC (Table I); type: cell-based; details: read-out: Agar Dilution MIC
[14] = test system: E. coli; assay: Agar Dilution MIC (Table I); type: cell-based; details: Escherichia coli
[15] = test system: Klebsiella; assay: Agar Dilution MIC (Table I); type: cell-based; details: Klebsiella, read-out: Agar Dilution MIC
[16] = test system: H. influenzae; assay: Expanded Spectrum MIC (Table II); type: cell-based; details: Haemophilus influenzae
Description: as §1
(§2) Expanded Spectrum MIC (μg/ml)

[17] = test system: Staph. aureus; assay: Expanded Spectrum MIC (Table II); type: cell-based; details: Staphylococcus aureus
Description: as §1, §2

[18] = test system: Staph. epi; assay: Expanded Spectrum MIC (Table II); type: cell-based
Description: as §1, §2

[19] = test system: Bacteroides corrodens; assay: Susceptibility of Anaerobic Bacteroides Isolates by the Agar-Dilution Method (Table III); type: cell-based; details: Eikenella corrodens; strain 1874; readings 24 hrs. after incubation
Description: as §1
(§3) Susceptibility of Anaerobic Bacteroides Isolates by the
(§4) Agar-Dilution Method MIC (μg/ml) readings 24 hrs. after incubation

[20] = test system: Bacteroides fragilis; assay: as above; type: cell-based; details: 24 h
Description: as §1, §3, §4

[21] = test system: Bacteroides thetaiotaomicron; assay: as above; type: cell-based; details: 24 h
Description: as §1, §3, §4

[22] = read-out: MIC mean, mean over strains

N[C@@H](C(=O)N[C@@H]1C(=O)N2C(C(=O)O)=C(Cl)CS[C@H]12)c1ccccc1 [cefaclor]
MIC ([1]; read-out: MIC Geometric mean, geometric mean over strains): 32 µg/mL (≈ 87 µM) | MIC [1, 22]: 39 µg/mL (≈ 106 µM) | MIC ([1]; strain 180-821): 64 µg/mL (≈ 174 µM) | MIC ([1]; strain 10668): 64 µg/mL (≈ 174 µM) | MIC ([1]; strain 10683): 16 µg/mL (≈ 43.5 µM) | MIC ([1]; strain 10695): 32 µg/mL (≈ 87 µM) | MIC ([1]; strain 10732): 16 µg/mL (≈ 43.5 µM) | MIC ([1]; strain 10750): > 64 µg/mL | MIC ([1]; strain 10774): > 64 µg/mL | MIC ([1]; strain 10817): 64 µg/mL (≈ 174 µM) | MIC ([1]; strain 10837): > 64 µg/mL | MIC ([1]; strain 107266): 16 µg/mL (≈ 43.5 µM) | MIC ([1]; strain 107268): 16 µg/mL (≈ 43.5 µM) | MIC ([1]; strain 108133): 32 µg/mL (≈ 87 µM) | MIC ([2]; read-out: MIC Geometric Mean, geometric mean over strains): 2 µg/mL (≈ 5.44 µM) | MIC [2, 22]: 3 µg/mL (≈ 8.16 µM) | MIC ([2]; strain 101): 2 µg/mL (≈ 5.44 µM) | MIC ([2]; strain 102): 16 µg/mL (≈ 43.5 µM) | MIC ([2]; strain 103): 2 µg/mL (≈ 5.44 µM) | MIC ([2]; strain 104): 1 µg/mL (≈ 2.72 µM) | MIC ([2]; strain 105): 1 µg/mL (≈ 2.72 µM) | MIC ([2]; strain 106): 2 µg/mL (≈ 5.44 µM) | MIC ([2]; strain 107): 2 µg/mL (≈ 5.44 µM) | MIC ([2]; strain 108): 1 µg/mL (≈ 2.72 µM) | MIC ([2]; strain 109): 2 µg/mL (≈ 5.44 µM) | MIC ([2]; strain 110): 1 µg/mL (≈ 2.72 µM) | MIC ([2]; strain 111): 1 µg/mL (≈ 2.72 µM) | MIC ([2]; strain 112): 2 µg/mL (≈ 5.44 µM) | MIC ([2]; strain 113): 2 µg/mL (≈ 5.44 µM) | MIC ([2]; strain 114): 1 µg/mL (≈ 2.72 µM) | Stability to β-lactamase [3]: 138 | Stability to β-lactamase [4]: 71 | Stability to β-lactamase [5]: 23 | Stability to β-lactamase [6]: 65 | Stability to β-lactamase [7]: 4605

CC1=C(C(=O)O)N2C(=O)C(NC(=O)[C@H](N)c3csc4ccc(F)cc34)C2SC1 (stereo partly drawn) [Ex. 18, D-7-(5-Fluoro-3-benzothienyl)glycylamido-3-methyl-3-cephem-4-carboxylic acid]
MIC ([8]; strain V41): 8 µg/mL (≈ 19 µM) | MIC ([8]; strain X1.1): 1 µg/mL (≈ 2.37 µM) | MIC ([8]; strain X400): 64 µg/mL (≈ 152 µM) | MIC ([9]; strain 222): 4 µg/mL (≈ 9.49 µM) | MIC ([9]; strain EPI1): 8 µg/mL (≈ 19 µM) | MIC [10]: 0.25 µg/mL (≈ 0.593 µM) | MIC [11]: 1 µg/mL (≈ 2.37 µM) | MIC ([12]; strain 2041): 128 µg/mL (≈ 304 µM) | MIC ([12]; strain X66): 128 µg/mL (≈ 304 µM) | MIC ([13]; strain 76): 1 µg/mL (≈ 2.37 µM) | MIC ([13]; strain C.L.): 4 µg/mL (≈ 9.49 µM) | MIC ([14]; strain EC14): 64 µg/mL (≈ 152 µM) | MIC ([14]; strain N10): 128 µg/mL (≈ 304 µM) | MIC ([14]; strain TEM): 64 µg/mL (≈ 152 µM) | MIC ([15]; strain KAE): 128 µg/mL (≈ 304 µM) | MIC ([15]; strain X26): 4 µg/mL (≈ 9.49 µM) | MIC ([15]; strain X68): 128 µg/mL (≈ 304 µM) | MIC ([16]; strain 76): 1 µg/mL (≈ 2.37 µM) | MIC ([16]; strain 105): 1 µg/mL (≈ 2.37 µM) | MIC ([16]; strain 158): 1 µg/mL (≈ 2.37 µM) | MIC ([16]; strain 164): 1 µg/mL (≈ 2.37 µM) | MIC ([16]; strain 169): 1 µg/mL (≈ 2.37 µM) | MIC ([16]; strain 171): 1 µg/mL (≈ 2.37 µM) | MIC ([16]; strain 312): 1 µg/mL (≈ 2.37 µM) | MIC ([16]; strain 1683): 0.25 µg/mL (≈ 0.593 µM) | MIC ([16]; strain 1930): 1 µg/mL (≈ 2.37 µM) | MIC ([16]; strain 4842): 1 µg/mL (≈ 2.37 µM) | MIC ([16]; strain C.L.): 2 µg/mL (≈ 4.75 µM) | MIC ([16]; strain HESS): 2 µg/mL (≈ 4.75 µM) | MIC ([16]; strain M366): 64 µg/mL (≈ 152 µM) | MIC ([16]; strain M370): 1 µg/mL (≈ 2.37 µM) | MIC ([16]; strain M371): 1 µg/mL (≈ 2.37 µM) | MIC ([16]; strain R465): 64 µg/mL (≈ 152 µM) | MIC ([16]; strain STEL): 64 µg/mL (≈ 152 µM) | MIC ([17]; strain S224): 1 µg/mL (≈ 2.37 µM) | MIC ([17]; strain S225): 1 µg/mL (≈ 2.37 µM) | MIC ([17]; strain S226): 2 µg/mL (≈ 4.75 µM) | MIC ([17]; strain S227): 2 µg/mL (≈ 4.75 µM) | MIC ([17]; strain S228): 1 µg/mL (≈ 2.37 µM) | MIC ([17]; strain S229): 2 µg/mL (≈ 4.75 µM) | MIC ([17]; strain S230): 1 µg/mL (≈ 2.37 µM) | MIC ([17]; strain S231): 1 µg/mL (≈ 2.37 µM) | MIC ([17]; strain S234): 2 µg/mL (≈ 4.75 µM) | MIC ([17]; strain S237): 2 µg/mL (≈ 4.75 µM) | MIC ([17]; strain S238): 2 µg/mL (≈ 4.75 µM) | MIC ([17]; strain S239): 2 µg/mL (≈ 4.75 µM) | MIC ([18]; strain 219): 1 µg/mL (≈ 2.37 µM) | MIC ([18]; strain 269): 4 µg/mL (≈ 9.49 µM) | MIC ([18]; strain 270): 4 µg/mL (≈ 9.49 µM) | MIC ([18]; strain 285): 2 µg/mL (≈ 4.75 µM) | MIC ([18]; strain 286): 1 µg/mL (≈ 2.37 µM) | MIC ([18]; strain EPI1): 8 µg/mL (≈ 19 µM) | MIC [19]: 64 µg/mL (≈ 152 µM) | MIC ([20]; strain 9, readings 24 hrs. after incubation): 8 µg/mL (≈ 19 µM) | MIC ([20]; strain 103, readings 24 hrs. after incubation): 64 µg/mL (≈ 152 µM) | MIC ([20]; strain 104, readings 24 hrs. after incubation): 16 µg/mL (≈ 38 µM) | MIC ([20]; strain 106, readings 24 hrs. after incubation): 16 µg/mL (≈ 38 µM) | MIC ([20]; strain 107, readings 24 hrs. after incubation): 16 µg/mL (≈ 38 µM) | MIC ([20]; strain 108, readings 24 hrs. after incubation): 16 µg/mL (≈ 38 µM) | MIC ([20]; strain 110, readings 24 hrs. after incubation): 16 µg/mL (≈ 38 µM) | MIC ([20]; strain 111, readings 24 hrs. after incubation): 128 µg/mL (≈ 304 µM) | MIC ([20]; strain 1877, readings 24 hrs. after incubation): 16 µg/mL (≈ 38 µM) | MIC ([21]; strain 1438, readings 24 hrs. after incubation): 16 µg/mL (≈ 38 µM) | MIC ([21]; strain 1900A, readings 24 hrs. after incubation): 32 µg/mL (≈ 75.9 µM)
